Here are results for 1 compound from US20230270764A1, “COMPOSITION COMPRISING CANNABINOIDS, TERPENES, AND FLAVONOIDS FOR TREATING DEPRESSION” (priority 2020, published 2023).

SMILES strings stand for the structures.

In assay [1] the test system is BV2 microglial cells. Nature of the assay: Poly I:C-induced IL-6 release by BV2 microglia. Conditions: 10 µM. It counts as cell-based, murine. Here is the method: The BV2 cells are cultured at 37° C. in a humidified atmosphere with 5% CO2 in high D-glucose (4.5 g/L) Dulbecco’s modified Eagle’s medium (Sigma, Rehovot, Israel) supplemented with 5% heat-inactivated fetal bovine serum, streptomycin (100 µg/ml), and penicillin (100 units/ml) and sodium pyruvate (1 mM; all from Biological Industries Ltd., Kibbutz Beit Haemek, Israel). 24 hours before experiments with LPS stimulation, the BV2 cells are split into 24 well plates, 2×10^5 cells per well, covered with 1 ml of growth medium and allowed to attach overnight. 24 hr before experiments with α-synuclein, the BV2 cells are split into 96-well plates, 50,000 (5×10^4) cells per well, covered with 200 µl of growth medium and allowed to attach overnight. […]

The test system of assay [2] is BV2 microglial cells. Nature of the assay: α-synuclein-induced TNFα secretion by BV2 microglia cell cultures. It counts as cell-based, murine. Here is the method:
The BV2 cells are cultured at 37° C. in a humidified atmosphere with 5% CO2 in high D-glucose (4.5 g/L) Dulbecco’s modified Eagle’s medium (Sigma, Rehovot, Israel) supplemented with 5% heat-inactivated fetal bovine serum, streptomycin (100 µg/ml), and penicillin (100 units/ml) and sodium pyruvate (1 mM; all from Biological Industries Ltd., Kibbutz Beit Haemek, Israel). 24 hours before experiments with LPS stimulation, the BV2 cells are split into 24 well plates, 2×10^5 cells per well, covered with 1 ml of growth medium and allowed to attach overnight. 24 hr before experiments with α-synuclein, the BV2 cells are split into 96-well plates, 50,000 (5×10^4) cells per well, covered with 200 µl of growth medium and allowed to attach overnight. Cultures of BV2 microglia cells are first treated by an individual cannabinoid, or terpene or flavonoid selected from: Cannabidiol (CBD), Δ-9-tetrahydrocannabinol (THC), Δ-8-tetrahydrocannabinol (THC), cannabigerol (CBG), cannabichromene (CBC), cannabigerolic acid (CBGA), Cannabidiolic acid (CBDA), THC acid (THCA), cannabichromenic Acid (CBCA), Cannabidivarin (CBDV), tetrahydrocannabivarin (THCV), Cannabichromevarin (CBCV), Cannabichromerocin ([…]), Cannabivarin (CBV), Cannabicitran (CBT), Cannabinol (CBN), Cannabicyclol (CBL), Cannabigerorcin (CBGO), Cannabinodiol (CBND), β-caryophyllene, β-elemene, β-myrcene, linalool, α-pinene, β-pinene, eucalyptol, alpha-terpineol, valencene, geraniol (lemonol), bisabolol, nerolidol, ocimene, terpinolene, humulene, α-terpinene, camphene, fenchol, α-phellandrene, Δ3-carene, γ-cardinene, sabinene, limonene, β-amyrin, cycloartenol, cannflavin A, cannflavin B, kaempferol, quercetin, luteolin, apigenin, canniprene, orientin, β-sitosterol, vitexin, isovitexin, and chrysin. Additional cultures of BV2 microglia cells are treated by an individual cannabinoid, with at least one additional cannabinoid, and/or terpene, and/or flavonoid, and/or celecoxib. Additional cultures are exposed to the vehicle of these compounds (cremophor, ethanol and PBS, 1:1:18 (v/v/v)) (FIG. 2A). In some studies, cultures of BV2 microglia cells are treated by a specific whole plant cannabis extract, with or without supplementation with cannabinoid(s), and/or terpene(s) and/or flavonoid(s), and/or celecoxib (FIG. 2B).
For each individual cannabinoid mentioned above, 3-4 concentrations are used, ranging from 0.1 to 10 µM. For ultra-low dose Δ9-THC the concentration used is 0.01 µM. For each individual terpene or flavonoid mentioned above, 3-4 concentrations are used, ranging from 1 to 50 µM. For celecoxib, 3-4 concentrations are used, ranging from 0.1 to 10 µM. Two hours following the treatment, the cultures are exposed to one of the following microglia stimulators: LPS (Sigma L2630; Escherichia coli serotype O111:B4) is dissolved in D-PBS (Sigma, D8537) to a pre-stock concentration of 1 mg/ml, aliquoted and stored at -80° C. Stock solution of LPS at 10 ug/ml is prepared using sterile D-PBS, followed by filtering via 0.22 µm filter membrane, aliquoting and storing in -20° C. LPS is applied into the cell medium at a final concentration of 100 ng/ml. Poly I:C (Sigma, P1530) was first dissolved in sterile, molecular grade water to the concentration of 10 mg/ml (following the manufacturer’s instructions). This stock solution was further diluted to the concentration of 1 mg/ml in sterile PBS, and the aliquots stored in -20 °C. […] To induce oligomerization, α-Synuclein solution is placed for 24 hours on a shaker with agitation of 80 rpm and at 37° C.

In assay [3] the test system is C57BL/6 mice. Put plainly: Porsolt forced swim test. It counts as in vivo. Conditions: CLX 10 mg/kg; CBD 5 mg/kg i.p. From the text: All experiments were approved by the Hebrew University of Jerusalem Ethics Committee on Animal Care and Use. […] All data are presented as mean ± SEM.

As to `C=C(C)[C@@H]1CCC(C)=C[C@H]1c1c(O)cc(CCCCC)cc1O` [CBD, cannabidiol], in assay [1], the “Poly I:C-induced IL-6” value was “markedly decreased”. Besides, the “secretion of TNFα in cells incubated with α-synuclein aggregates/fibrils” value in assay [2] (Example 3, 10 µM) is “reduced”. In addition, the “release of TNFα by microglia incubated with α-synuclein aggregates/fibrils” value in assay [2] (Example 8, CBD by itself 1, 2.5 or 5 µM) was “neither CBD (1, 2.5, or 5 µM) nor celecoxib (1 or 2.5 µM) by themselves affected the release of TNFα”. In assay [2] (Mus musculus, BV-2, read-out: IC50, α-synuclein-induced TNFα release, Example 8 (FIG. 9B), by itself), the IC50 (usually the concentration needed to halve the response being measured) is 5.1 µM. Further, the “immobility time, each compound by itself” value in assay [3] is on record as “no significant effects”.
